The results in this text go back to ChEMBL document CHEMBL6071212, “Studies of Structure-Activity Relationship of 2-(Pyrrolidin-1ylmethyl)-1H-pyrrole-Based ST2 Inhibitors and Their Inhibition of Mast Cells Activation” (ACS Med Chem Lett, 2024).

Data set [1] can be described thus: Inhibition of ST2/IL-33 (unknown origin) by AlphaLISA assay. Also on record: species or system Homo sapiens. Background: Alpha assays give light when donor and acceptor beads are brought close together.
Data set [2] is described as follows: Inhibition of ST2/IL-33 (unknown origin) expressed in HEK-Blue IL-33 cells assessed as decrease in NF-kappaB […]. The data set is classed as cell-based. As to conditions: Homo sapiens.
Data set [3] can be described thus: Metabolic stability in mouse liver microsomes assessed as half life. The class given is ADME, Microsome.
Data set [4] deals with LAD2. Put plainly: Inhibition of IL-1beta secretion in IL-33/substance P-stimulated human LAD2 cells incubated for 24 hrs followed by 48/80 addition measured after 30 mins by ELISA. The class given is functional, cell-based. As to conditions: dose 10-30 µM, time 24.5 hrs. For orientation: In an ELISA, binding on a coated surface is turned into a signal by an enzyme label.

Data set [5] deals with LAD2. Put plainly: Inhibition of ST2 in IL-33-stimulated human LAD2 cells assessed as residual activity at 30 uM incubated for 24 hrs by flow cytometry (reference value: 24.18 %). The data set is classed as cell-based. A general note: In flow cytometry, cells or beads pass a laser one at a time.
The test system of data set [6] is LAD2. Description: Inhibition of IL-1beta secretion in IL-33/substance P-stimulated human LAD2 cells at 50 uM incubated for 24 hrs followed by 48/80 addition measured after 30 mins by ELISA. The class given is functional, cell-based.

Activity calls are given as the source filed them. The rule behind the calls is not given here. Where only a bound is given, the exact number is not on record here.

With `CN(C)c1ccc(C2CCCN2Cc2ccc(-c3ccc([N+](=O)[O-])c(C(=O)O)c3)[nH]2)cc1` (configuration not stated), the IC50 – broadly, the midpoint of a concentration-inhibition curve – in data set [1] was greater than 100 µM.

In data set [1], `CN(C)c1ccc(C2CCCN2Cc2ccc(-c3ccc([N+](=O)[O-])cc3)o2)cc1` (configuration not stated) yielded an IC50 of 17.4 µM.

In the case of `CN(C)c1ccc(C2CCCN2Cc2ccc(-c3ccc([N+](=O)[O-])cc3)[nH]2)cc1` (configuration not stated), the figures for the IC50 in data set [1] and in data set [2] were 13 µM and 16.2 µM, respectively.

As to `CN(C)c1ccc(C2CCCCN2Cc2ccc(-c3ccc([N+](=O)[O-])cc3)[nH]2)cc1` (configuration not stated), the results for the IC50 in data set [1] and in data set [2] were 16.2 µM and 8.47 µM, respectively.

`CN(C)c1ccc(C2CCCN2Cc2cc(-c3ccc([N+](=O)[O-])cc3)[nH]n2)cc1` (configuration not stated) had an IC50 in data set [1] greater than 100 µM.

Regarding `Cc1cc(-c2ccc(CN3CCCC3c3ccc(N(C)C)cc3)[nH]2)ccc1[N+](=O)[O-]` (configuration not stated), the half-life – broadly, how long it takes for the measured level to halve – in data set [3] came to 1.86 min. Further, the IC50 in data set [1] came out at 8.12 µM; in data set [2], 9.57 µM.

The molecule `CN(C)c1ccc(C2CCCN2Cc2ccc(-c3ccc([N+](=O)[O-])c(CO)c3)[nH]2)cc1` (configuration not stated) came in with an IC50 in data set [1] of 20.3 µM.

`CN(C)c1ccc(C2SCCN2Cc2ccc(-c3ccc([N+](=O)[O-])cc3)[nH]2)cc1` (configuration not stated): the IC50 in data set [1] turned out to be 26.9 µM; in data set [2], 17.8 µM.

Molecule `Cc1cc(-c2ccc(CN3CCCC3c3cccc(N(C)C)c3)[nH]2)ccc1[N+](=O)[O-]` (configuration not stated) showed an IC50 in data set [1] of 10 µM.

Regarding `Cc1cc(-c2ccc(CN3CCCC3c3cccc(N4CCCC4)c3)[nH]2)ccc1[N+](=O)[O-]` (configuration not stated), the IC50 was 7.74 µM in data set [1] and 12.1 µM in data set [2].

In data set [1], `Cc1cc(-c2ccc(CN3CCCC3c3cccc(N4CCC4)c3)[nH]2)ccc1[N+](=O)[O-]` (configuration not stated) registered an IC50 of 14.7 µM.

In data set [1], `Cc1cc(-c2ccc(CN3CCCC3c3cccc(N4CCC(O)C4)c3)[nH]2)ccc1[N+](=O)[O-]` (configuration not stated) came in with an IC50 of 53.5 µM.

For the molecule `Cc1ccc(-c2ccc(CN3CCCC3c3ccc(N(C)C)cc3)[nH]2)c([N+](=O)[O-])c1` (configuration not stated), the IC50 is 20 µM in data set [1] and 10.3 µM in data set [2].

In turn, `CN(C)c1ccc(C2CCCN2Cc2ccc(-c3ccc([N+](=O)[O-])c(C(N)=O)c3)[nH]2)cc1` (configuration not stated) returned an IC50 in data set [1] of 37.1 µM.

Take `CN(C)c1ccc(C2COCCN2Cc2ccc(-c3ccc4c(c3)OCO4)[nH]2)cc1` (configuration not stated): the IC50 in data set [1] amounted to 12.9 µM; in data set [2] it was 10.2 µM.

`CN(C)C(=O)c1cc(-c2ccc(CN3CCCC3c3ccc(N(C)C)cc3)[nH]2)ccc1[N+](=O)[O-]` (configuration not stated) came in with an IC50 in data set [1] of 25 µM.

Molecule `CCn1c(CN2CCCC2c2ccc(N(C)C)cc2)ccc1-c1ccc([N+](=O)[O-])cc1` (configuration not stated) gave an IC50 in data set [1] of 14.8 µM.

As for `CN(C)c1ccc(C2CCCN2Cc2ccc(-c3ccc([N+](=O)[O-])c(N4CCCC4)c3)[nH]2)cc1` (configuration not stated), the half-life in data set [3] was 1.47 min. In addition, the IC50 in data set [1] amounted to 7 µM; in data set [2], 7.19 µM. The inhibition result in data set [4] is “Dose-Dependent Effect”.

For `COc1cc(-c2ccc(CN3CCCC3c3ccc(N(C)C)cc3)[nH]2)ccc1[N+](=O)[O-]` (configuration not stated), the half-life in data set [3] was 7.8 min. Besides, the Activity in data set [5] was found to be 19.8%. Besides, the IC50 is 12.2 µM in data set [1] and 7.15 µM in data set [2].

In turn, `CN(C)c1ccc(C2CCCN2Cc2ccc(-c3ccc([N+](=O)[O-])cc3)s2)cc1` (configuration not stated) registered an IC50 in data set [1] of 14.1 µM.

With `CN(C)c1ccc(C2CCCN2Cc2ccc(-c3ccc(C(N)=O)cc3)[nH]2)cc1` (configuration not stated), the IC50 in data set [1] was 79.6 µM.

In the case of `Cc1cc(-c2ccc(CN3CCCC3c3cccc(N[C@H]4CCOC4)c3)[nH]2)ccc1[N+](=O)[O-]` (some centres not stated), in data set [1], inhibition was half-maximal at 56.2 µM (IC50).

On to `Cc1cc([N+](=O)[O-])ccc1-c1ccc(CN2CCCC2c2ccc(N(C)C)cc2)o1` (configuration not stated), for which the half-life in data set [3] turned out to be 3.64 min. Moreover, the IC50 in data set [1] was 7.77 µM; in data set [2], 52.5 µM.

Molecule `CN(C)c1ccc(C2COCCN2Cc2ccc(-c3ccc([N+](=O)[O-])cc3)[nH]2)cc1` (configuration not stated) came in with an IC50 in data set [1] of 80.2 µM.

As to `CC(C)Oc1cc(-c2ccc(CN3CCCC3c3ccc(N(C)C)cc3)[nH]2)ccc1[N+](=O)[O-]` (configuration not stated), the half-life in data set [3] was determined as 1.91 min. Moreover, the IC50 in data set [1] is 15.6 µM; in data set [2], 10.2 µM.

The molecule `CN(C)c1ccc(C2CCCN2Cc2ccc(-c3ccc([N+](=O)[O-])c(C#N)c3)[nH]2)cc1` (configuration not stated) yielded an IC50 in data set [1] of 12.8 µM.

`CN(C)c1ccc(C2CCCN2Cc2ncc(-c3ccc([N+](=O)[O-])cc3)[nH]2)cc1` (configuration not stated) yielded an IC50 in data set [1] of 17.7 µM.

For the molecule `COC(=O)c1cc(-c2ccc(CN3CCCC3c3ccc(N(C)C)cc3)[nH]2)ccc1[N+](=O)[O-]` (configuration not stated), in data set [3], the half-life was determined as 2.2 min. Besides, the IC50 is 8.1 µM in data set [1] and 6.52 µM in data set [2].

Turning to `CN(C)c1ccc(C2CCCN2Cc2c[nH]c(-c3ccc([N+](=O)[O-])cc3)c2)cc1` (configuration not stated), half-maximal inhibition in data set [1] (IC50) required 17.9 µM.

In the case of `Cc1ccc([N+](=O)[O-])c(-c2ccc(CN3CCCC3c3ccc(N(C)C)cc3)[nH]2)c1` (configuration not stated), the IC50 in data set [1] was 12.1 µM; in data set [2], 10.6 µM.

`Cc1cc(-c2ccc(CN3CCCC3c3cccc(N[C@@H]4CCOC4)c3)[nH]2)ccc1[N+](=O)[O-]` (some centres not stated) had an IC50 in data set [1] of 75.6 µM.

`CCNC(=O)c1cc(-c2ccc(CN3CCCC3c3ccc(N(C)C)cc3)[nH]2)ccc1[N+](=O)[O-]` (configuration not stated) had an IC50 in data set [1] of 46.9 µM.

Consider `Cc1cc(-c2ccc(CN3CCCC3c3ccc(N4CCCC4)cc3)[nH]2)ccc1[N+](=O)[O-]` (configuration not stated), for which, in data set [3], the half-life is 4.59 min. The IC50 in data set [1] is 7.48 µM; in data set [2] it was 11 µM.

As to `CN(C)c1ccc(C2CCCN2Cc2ccc(-c3ccc([N+](=O)[O-])cc3)n2C)cc1` (configuration not stated), in data set [1], the half-inhibitory concentration (IC50) worked out at 10.7 µM.

Regarding `COc1cc(OC)c2c(=O)cc(-c3ccc(OC)c(OC)c3)oc2c1`, in data set [6], the inhibition result was “Active”.

The molecule `CN(C)c1ccc(C2CCCN2Cc2cnc(-c3ccc([N+](=O)[O-])cc3)[nH]2)cc1` (configuration not stated) gave an IC50 in data set [1] of 24 µM.

In data set [1], `CN(C)c1ccc(C2CCCN2Cc2ccc(-c3ccc(C#N)cc3)[nH]2)cc1` (configuration not stated) registered an IC50 of 33 µM.

`Cc1cc([N+](=O)[O-])ccc1-c1ccc(CN2CCCC2c2ccc(N(C)C)cc2)[nH]1` (configuration not stated): the IC50 is 17.9 µM in data set [1] and 7.26 µM in data set [2].
